Assay results from publication doi:10.1101/2024.08.19.608619, “Discovery of potent SARS-CoV-2 nsp3 macrodomain inhibitors uncovers lack of translation to cellular antiviral response” (bioRxiv, 2024).
Like-named read-outs stand apart in the source and are kept apart here.

Key:
Test in all cases: biochemical
Set-up in all cases: In vitro kinase panel profiling, per cent remaining kinase activity at 10 uM
[1] = molecular target: T1, AMPKα1(h) (Homo sapiens, UniProt Q13131); conditions: atp_concentration=45, read-out: % of control remaining
T1 construct: gene PRKAA1
Source text: (§1) We derisk potential for off-target activity by profiling the compound in a CEREP panel, a standard secondary pharmacology assessment, as well as a kinase panel to derisk a potential hinge-binding motif in our leads, and a PARP panel to derisk activity against human […]. Reassuringly, the compounds are selective, with the only off-targets being moderate human CHRM2 and KOR receptors activity associated with ASAP-0011198.

[2] = molecular target: T2, Abl(h) (Homo sapiens, UniProt P00519); conditions: atp_concentration=45, read-out: % of control remaining
T2 construct: gene ABL1
Source text: as §1

[3] = molecular target: CDK7/cyclinH/MAT1(h) (Homo sapiens, UniProt P50613); conditions: atp_concentration=90, read-out: % of control remaining
Source text: as §1

[4] = molecular target: T3, CaMKI(h) (Homo sapiens, UniProt Q14012); conditions: atp_concentration=200, read-out: % of control remaining
T3 construct: gene CAMK1
Source text: as §1

[5] = molecular target: EGFR(h) (Homo sapiens, UniProt P00533); conditions: atp_concentration=10, read-out: % of control remaining
Source text: as §1

[6] = molecular target: EphA5(h) (Homo sapiens, UniProt P54756); conditions: atp_concentration=10, read-out: % of control remaining
Source text: as §1

[7] = molecular target: Fyn(h) (Homo sapiens, UniProt P06241); conditions: atp_concentration=70, read-out: % of control remaining
Source text: as §1

[8] = molecular target: JAK2(h) (Homo sapiens, UniProt O60674); conditions: atp_concentration=45, read-out: % of control remaining
Source text: as §1

[9] = molecular target: T4, MST1(h) (Homo sapiens, UniProt Q13043); conditions: atp_concentration=90, read-out: % of control remaining
T4 construct: gene STK4
T4 sequence (Q13043 1-487): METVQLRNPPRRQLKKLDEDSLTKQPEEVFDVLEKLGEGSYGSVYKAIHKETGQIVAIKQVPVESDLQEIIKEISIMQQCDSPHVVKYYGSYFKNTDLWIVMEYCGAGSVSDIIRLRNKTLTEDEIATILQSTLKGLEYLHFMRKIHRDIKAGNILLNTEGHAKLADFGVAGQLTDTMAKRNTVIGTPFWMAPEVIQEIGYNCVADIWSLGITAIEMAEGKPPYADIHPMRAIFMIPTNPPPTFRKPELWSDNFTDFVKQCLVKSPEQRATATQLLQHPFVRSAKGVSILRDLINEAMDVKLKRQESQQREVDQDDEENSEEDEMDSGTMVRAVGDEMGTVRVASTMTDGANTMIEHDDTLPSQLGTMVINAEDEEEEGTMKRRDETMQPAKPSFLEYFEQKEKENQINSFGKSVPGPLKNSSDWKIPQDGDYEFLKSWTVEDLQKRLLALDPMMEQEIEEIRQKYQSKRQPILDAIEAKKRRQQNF
Source text: as §1

[10] = molecular target: T5, Mnk2(h) (Homo sapiens, UniProt Q9HBH9); conditions: atp_concentration=120, read-out: % of control remaining
T5 construct: gene MKNK2
Source text: as §1

[11] = molecular target: PAK2(h) (Homo sapiens, UniProt Q13177); conditions: atp_concentration=90, read-out: % of control remaining
Source text: as §1

[12] = molecular target: T6, PI3 Kinase (p110α/p85α)(h) (Homo sapiens, UniProt P42336); conditions: atp_concentration=200, read-out: % of control remaining
T6 construct: gene PIK3CA
Source text: as §1

[13] = molecular target: T7, PI3 Kinase (p110β/p85α)(h) (Homo sapiens, UniProt P42338); conditions: atp_concentration=200, read-out: % of control remaining
T7 construct: gene PIK3CB
Source text: as §1

[14] = molecular target: T8, PI3 Kinase (p120γ)(h) (Homo sapiens, UniProt P48736); conditions: atp_concentration=100, read-out: % of control remaining
T8 construct: gene PIK3CG
Source text: as §1

[15] = molecular target: T9, Pim-1(h) (Homo sapiens, UniProt P11309); conditions: atp_concentration=90, read-out: % of control remaining
T9 construct: gene PIM1
Source text: as §1

T3 sequence (Q14012 whole entry): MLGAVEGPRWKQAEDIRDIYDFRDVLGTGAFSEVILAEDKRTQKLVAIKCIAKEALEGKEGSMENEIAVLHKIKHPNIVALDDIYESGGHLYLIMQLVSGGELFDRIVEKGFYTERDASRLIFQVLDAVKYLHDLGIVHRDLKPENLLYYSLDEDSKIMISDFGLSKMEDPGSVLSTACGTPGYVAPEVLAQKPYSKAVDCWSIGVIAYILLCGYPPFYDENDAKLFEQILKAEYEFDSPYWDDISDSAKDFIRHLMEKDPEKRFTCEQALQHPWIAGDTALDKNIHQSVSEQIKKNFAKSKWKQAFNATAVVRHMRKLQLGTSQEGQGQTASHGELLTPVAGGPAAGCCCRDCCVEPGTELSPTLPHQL
EGFR(h), sequence (P00533 whole entry): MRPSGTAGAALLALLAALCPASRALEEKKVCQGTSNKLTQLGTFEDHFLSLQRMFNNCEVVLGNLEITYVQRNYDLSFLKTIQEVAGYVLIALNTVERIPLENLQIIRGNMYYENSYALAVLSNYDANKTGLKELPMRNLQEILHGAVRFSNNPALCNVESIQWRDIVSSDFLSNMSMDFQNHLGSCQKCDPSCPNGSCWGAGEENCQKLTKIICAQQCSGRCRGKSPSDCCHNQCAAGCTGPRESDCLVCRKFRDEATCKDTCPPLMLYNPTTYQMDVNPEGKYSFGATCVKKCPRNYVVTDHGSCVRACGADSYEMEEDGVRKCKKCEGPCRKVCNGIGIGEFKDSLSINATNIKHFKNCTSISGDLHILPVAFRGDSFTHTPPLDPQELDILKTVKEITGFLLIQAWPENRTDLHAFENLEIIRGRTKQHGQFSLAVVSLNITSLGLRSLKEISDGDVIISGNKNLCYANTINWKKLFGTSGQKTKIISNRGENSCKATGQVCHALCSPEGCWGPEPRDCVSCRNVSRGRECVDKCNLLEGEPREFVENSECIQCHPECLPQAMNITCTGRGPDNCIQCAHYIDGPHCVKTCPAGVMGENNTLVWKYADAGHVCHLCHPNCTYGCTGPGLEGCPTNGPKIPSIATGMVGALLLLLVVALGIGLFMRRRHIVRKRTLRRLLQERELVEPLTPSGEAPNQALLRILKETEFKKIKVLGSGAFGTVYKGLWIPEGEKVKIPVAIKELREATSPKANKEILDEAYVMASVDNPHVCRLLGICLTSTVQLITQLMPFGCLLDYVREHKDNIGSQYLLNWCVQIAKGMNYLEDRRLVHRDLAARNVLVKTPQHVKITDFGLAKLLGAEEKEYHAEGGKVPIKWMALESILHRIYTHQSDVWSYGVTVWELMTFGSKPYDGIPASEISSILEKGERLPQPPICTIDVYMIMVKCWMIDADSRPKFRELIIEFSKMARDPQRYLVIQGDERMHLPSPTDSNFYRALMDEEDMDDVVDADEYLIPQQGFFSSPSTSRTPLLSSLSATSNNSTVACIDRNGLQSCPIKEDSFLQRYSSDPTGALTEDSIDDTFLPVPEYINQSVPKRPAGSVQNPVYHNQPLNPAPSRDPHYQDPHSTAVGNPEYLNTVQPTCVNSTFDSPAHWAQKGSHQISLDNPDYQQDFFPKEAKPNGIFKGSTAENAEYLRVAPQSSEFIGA
EphA5(h), sequence (P54756 whole entry): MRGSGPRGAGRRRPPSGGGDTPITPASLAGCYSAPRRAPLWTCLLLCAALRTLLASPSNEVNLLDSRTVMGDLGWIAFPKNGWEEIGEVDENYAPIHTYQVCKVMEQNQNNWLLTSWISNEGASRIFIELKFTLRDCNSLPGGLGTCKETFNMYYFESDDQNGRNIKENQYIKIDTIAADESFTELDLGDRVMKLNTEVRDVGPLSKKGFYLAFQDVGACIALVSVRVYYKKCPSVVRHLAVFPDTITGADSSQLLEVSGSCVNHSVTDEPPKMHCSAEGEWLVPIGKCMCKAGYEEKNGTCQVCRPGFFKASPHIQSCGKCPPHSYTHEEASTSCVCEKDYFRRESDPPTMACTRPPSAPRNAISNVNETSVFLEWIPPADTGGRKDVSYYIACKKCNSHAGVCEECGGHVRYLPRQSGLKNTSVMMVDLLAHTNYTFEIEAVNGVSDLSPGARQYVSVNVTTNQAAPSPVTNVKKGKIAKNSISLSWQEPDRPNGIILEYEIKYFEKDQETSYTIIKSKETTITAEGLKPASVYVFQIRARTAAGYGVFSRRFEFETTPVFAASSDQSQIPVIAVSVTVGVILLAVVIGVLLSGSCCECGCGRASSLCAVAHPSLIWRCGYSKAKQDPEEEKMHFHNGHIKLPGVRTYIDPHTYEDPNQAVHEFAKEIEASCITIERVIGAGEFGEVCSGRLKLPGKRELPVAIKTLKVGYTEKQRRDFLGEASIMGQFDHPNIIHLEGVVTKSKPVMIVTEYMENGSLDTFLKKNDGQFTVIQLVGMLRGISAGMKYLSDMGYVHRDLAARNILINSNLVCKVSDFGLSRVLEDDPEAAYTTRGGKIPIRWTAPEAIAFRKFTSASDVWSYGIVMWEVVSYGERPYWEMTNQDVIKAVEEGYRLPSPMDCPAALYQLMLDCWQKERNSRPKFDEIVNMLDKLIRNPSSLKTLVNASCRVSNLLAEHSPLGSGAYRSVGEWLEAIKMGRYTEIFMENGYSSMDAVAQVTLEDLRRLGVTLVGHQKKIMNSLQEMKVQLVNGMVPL
T1 sequence (Q13131 whole entry): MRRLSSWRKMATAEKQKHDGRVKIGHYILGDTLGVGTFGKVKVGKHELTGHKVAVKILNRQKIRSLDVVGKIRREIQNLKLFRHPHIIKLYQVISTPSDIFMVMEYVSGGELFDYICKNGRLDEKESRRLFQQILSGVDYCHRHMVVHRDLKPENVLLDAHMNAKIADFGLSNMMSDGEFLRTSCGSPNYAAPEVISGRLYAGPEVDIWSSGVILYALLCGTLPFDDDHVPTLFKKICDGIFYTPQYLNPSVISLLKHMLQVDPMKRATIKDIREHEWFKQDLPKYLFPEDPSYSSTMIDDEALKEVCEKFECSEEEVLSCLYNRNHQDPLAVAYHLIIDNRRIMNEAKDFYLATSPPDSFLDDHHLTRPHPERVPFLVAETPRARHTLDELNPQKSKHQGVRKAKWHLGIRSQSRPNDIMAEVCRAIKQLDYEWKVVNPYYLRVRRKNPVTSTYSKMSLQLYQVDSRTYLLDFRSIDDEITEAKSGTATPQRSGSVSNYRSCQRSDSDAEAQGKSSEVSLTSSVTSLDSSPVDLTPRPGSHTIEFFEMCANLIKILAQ
T1 sequence (P54619 whole entry partner): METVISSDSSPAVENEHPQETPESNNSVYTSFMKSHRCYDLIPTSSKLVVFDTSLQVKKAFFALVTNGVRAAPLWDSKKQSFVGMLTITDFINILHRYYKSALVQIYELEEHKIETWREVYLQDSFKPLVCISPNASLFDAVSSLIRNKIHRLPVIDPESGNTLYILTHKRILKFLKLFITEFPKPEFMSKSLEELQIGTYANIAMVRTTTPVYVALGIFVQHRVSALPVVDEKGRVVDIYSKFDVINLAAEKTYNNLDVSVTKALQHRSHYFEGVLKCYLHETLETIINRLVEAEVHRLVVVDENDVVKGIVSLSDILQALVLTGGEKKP
T1 sequence (Q9Y478 whole entry partner): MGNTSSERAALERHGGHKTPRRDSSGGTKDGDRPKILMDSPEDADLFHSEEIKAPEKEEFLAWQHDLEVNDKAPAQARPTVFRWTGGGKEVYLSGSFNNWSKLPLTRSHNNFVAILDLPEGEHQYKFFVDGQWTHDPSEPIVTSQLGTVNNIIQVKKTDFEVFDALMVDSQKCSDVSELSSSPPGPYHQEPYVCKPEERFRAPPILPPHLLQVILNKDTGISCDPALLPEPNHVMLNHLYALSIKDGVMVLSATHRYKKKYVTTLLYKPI
T2 sequence (P00519 whole entry): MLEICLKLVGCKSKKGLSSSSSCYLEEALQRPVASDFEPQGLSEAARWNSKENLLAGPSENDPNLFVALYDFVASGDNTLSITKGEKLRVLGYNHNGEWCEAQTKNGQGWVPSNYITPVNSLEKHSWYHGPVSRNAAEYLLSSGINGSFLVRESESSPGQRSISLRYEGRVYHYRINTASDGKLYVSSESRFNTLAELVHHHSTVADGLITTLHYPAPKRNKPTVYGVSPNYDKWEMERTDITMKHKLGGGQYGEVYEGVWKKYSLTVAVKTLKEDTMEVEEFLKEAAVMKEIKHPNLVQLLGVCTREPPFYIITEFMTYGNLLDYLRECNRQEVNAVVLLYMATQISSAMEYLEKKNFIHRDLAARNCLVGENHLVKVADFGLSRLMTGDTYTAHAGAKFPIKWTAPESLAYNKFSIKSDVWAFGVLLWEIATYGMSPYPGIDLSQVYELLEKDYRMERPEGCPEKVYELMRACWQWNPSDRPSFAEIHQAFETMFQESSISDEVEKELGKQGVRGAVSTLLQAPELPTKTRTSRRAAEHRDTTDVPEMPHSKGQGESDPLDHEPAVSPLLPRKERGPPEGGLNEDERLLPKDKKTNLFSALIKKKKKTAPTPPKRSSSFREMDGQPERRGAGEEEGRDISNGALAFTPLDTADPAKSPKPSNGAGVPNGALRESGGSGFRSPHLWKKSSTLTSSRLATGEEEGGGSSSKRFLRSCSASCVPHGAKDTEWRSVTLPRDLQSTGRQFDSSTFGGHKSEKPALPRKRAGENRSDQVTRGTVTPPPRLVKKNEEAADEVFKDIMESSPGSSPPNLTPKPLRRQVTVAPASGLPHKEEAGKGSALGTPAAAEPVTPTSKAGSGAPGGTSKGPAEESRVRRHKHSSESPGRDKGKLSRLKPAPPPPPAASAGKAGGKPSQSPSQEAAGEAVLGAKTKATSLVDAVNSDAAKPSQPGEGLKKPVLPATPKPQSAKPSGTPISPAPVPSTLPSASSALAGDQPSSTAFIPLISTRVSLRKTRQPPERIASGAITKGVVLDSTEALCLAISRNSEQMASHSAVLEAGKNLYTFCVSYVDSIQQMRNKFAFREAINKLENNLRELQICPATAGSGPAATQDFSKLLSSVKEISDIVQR

Work on `CC(C)C(Nc1ncnc2[nH]ccc12)c1ccc2c(c1)S(=O)(=O)CCC2` (stereo not drawn) [ASAP-0008327] yielded a remaining activity at 10 µM ([1]; batch_name=ASAP-0008327-001) of 94%, a remaining activity at 10 µM ([2]; batch_name=ASAP-0008327-001) of 93% and a remaining activity at 10 µM ([3]; batch_name=ASAP-0008327-001) of 85%. For the same compound, the remaining activity at 10 µM ([4]; batch_name=ASAP-0008327-001) was 94%, the remaining activity at 10 µM ([5]; batch_name=ASAP-0008327-001) was 102% and the remaining activity at 10 µM ([6]; batch_name=ASAP-0008327-001) was 110%. The remaining activity at 10 µM ([7]; batch_name=ASAP-0008327-001) was 127%, the remaining activity at 10 µM ([8]; batch_name=ASAP-0008327-001) was 110% and the remaining activity at 10 µM ([9]; batch_name=ASAP-0008327-001) was 88%. For the same compound, the remaining activity at 10 µM ([10]; batch_name=ASAP-0008327-001) was 89%, the remaining activity at 10 µM ([11]; batch_name=ASAP-0008327-001) was 110% and the remaining activity at 10 µM ([12]; batch_name=ASAP-0008327-001) was 104%. For the same compound, the remaining activity at 10 µM ([13]; batch_name=ASAP-0008327-001) was 101%, the remaining activity at 10 µM ([14]; batch_name=ASAP-0008327-001) was 103% and the remaining activity at 10 µM ([15]; batch_name=ASAP-0008327-001) was 80%.

Compound `CC(C)[C@H](Nc1ncnc2[nH]c(-c3cnn(C)c3C#N)cc12)c1ccc2c(n1)OCCO2` [ASAP-0010715] has a remaining activity at 10 µM ([1]; batch_name=ASAP-0010715-002) of 111%, a remaining activity at 10 µM ([2]; batch_name=ASAP-0010715-002) of 57% and a remaining activity at 10 µM ([3]; batch_name=ASAP-0010715-002) of 98%. For the same compound, the remaining activity at 10 µM ([4]; batch_name=ASAP-0010715-002) was 104%, the remaining activity at 10 µM ([5]; batch_name=ASAP-0010715-002) was 90% and the remaining activity at 10 µM ([6]; batch_name=ASAP-0010715-002) was 102%. It also gave a remaining activity at 10 µM ([7]; batch_name=ASAP-0010715-002) of 80%, a remaining activity at 10 µM ([8]; batch_name=ASAP-0010715-002) of 115% and a remaining activity at 10 µM ([9]; batch_name=ASAP-0010715-002) of 120%. It also gave a remaining activity at 10 µM ([10]; batch_name=ASAP-0010715-002) of 95%, a remaining activity at 10 µM ([11]; batch_name=ASAP-0010715-002) of 99% and a remaining activity at 10 µM ([12]; batch_name=ASAP-0010715-002) of 70%. For the same compound, the remaining activity at 10 µM ([13]; batch_name=ASAP-0010715-002) was 86%, the remaining activity at 10 µM ([14]; batch_name=ASAP-0010715-002) was 80% and the remaining activity at 10 µM ([15]; batch_name=ASAP-0010715-002) was 98%.

`CC(C)[C@@H](Nc1ncnc2[nH]c(-c3cnn(C)c3C#N)cc12)c1ccc2c(n1)OCCO2` [ASAP-0010716] showed a remaining activity at 10 µM ([1]; batch_name=ASAP-0010716-002) of 99%, a remaining activity at 10 µM ([2]; batch_name=ASAP-0010716-002) of 57% and a remaining activity at 10 µM ([3]; batch_name=ASAP-0010716-002) of 102%. The remaining activity at 10 µM ([4]; batch_name=ASAP-0010716-002) was 95%, the remaining activity at 10 µM ([5]; batch_name=ASAP-0010716-002) was 77% and the remaining activity at 10 µM ([6]; batch_name=ASAP-0010716-002) was 90%. For the same compound, the remaining activity at 10 µM ([7]; batch_name=ASAP-0010716-002) was 55%, the remaining activity at 10 µM ([8]; batch_name=ASAP-0010716-002) was 123% and the remaining activity at 10 µM ([9]; batch_name=ASAP-0010716-002) was 121%. For the same compound, the remaining activity at 10 µM ([10]; batch_name=ASAP-0010716-002) was 83%, the remaining activity at 10 µM ([11]; batch_name=ASAP-0010716-002) was 99% and the remaining activity at 10 µM ([12]; batch_name=ASAP-0010716-002) was 55%. The remaining activity at 10 µM ([13]; batch_name=ASAP-0010716-002) was 84%, the remaining activity at 10 µM ([14]; batch_name=ASAP-0010716-002) was 78% and the remaining activity at 10 µM ([15]; batch_name=ASAP-0010716-002) was 99%.
